The results in this text go back to ChEMBL document CHEMBL1136890, “Design, synthesis and anticancer activities of hybrids of indole and barbituric acids--identification of highly promising leads” (2009).

Assay type in all cases: functional
In one test the test system is UO-31. In words: Growth inhibition of human UO31 cells at 10 uM. The conditions noted are these: read-out: GI.
In the next test the test system is RXF 393. In words: Growth inhibition of human RXF393 cells at 10 uM. Particulars: read-out: GI.
The test system of another test is IGROV-1. In words: Growth inhibition of human IGROV1 cells. Particulars: for CC50: read-out: LC50 (the source's name).
In another test the test system is MDA-MB-468. In words: Growth inhibition of human MDA-MB-468 cells. Particulars: for CC50: read-out: LC50 (the source's name).
The subject of test [1] is TK-10. In words: Growth inhibition of human TK10 cells. Particulars: for CC50: read-out: LC50 (the source's name).
Another test deals with NCI-H460. In words: Growth inhibition of human NCI-H460 cells.
The next test relates to SF-295. The test can be described thus: Growth inhibition of human SF295 cells. The conditions noted are these: for CC50: read-out: LC50 (the source's name).
The next test deals with NCI-H226. In words: Growth inhibition of human NCI-H226 cells.
For the next test, the system named is HOP-92. The test can be described thus: Growth inhibition of human HOP92 cells. Particulars: for CC50: read-out: LC50 (the source's name).
The next test relates to CAKI-1. In words: Growth inhibition of human Caki1 cells.
In the next test the test system is T47D. In words: Growth inhibition of human T47D cells. Particulars: for CC50: read-out: LC50 (the source's name).
The test system of test [2] is TK-10. In words: Growth inhibition of human TK10 cells at 10 uM. The conditions noted are these: read-out: GI.
The next test relates to COLO 205. In words: Growth inhibition of human COLO205 cells. Particulars: for CC50: read-out: LC50 (the source's name).
For a further test, the system named is UACC-62. The test can be described thus: Growth inhibition of human UACC62 cells.
A further test deals with OVCAR-4. The test can be described thus: Growth inhibition of human OVCAR4 cells. Particulars: for CC50: read-out: LC50 (the source's name).
The subject of another test is SK-MEL-2. The test can be described thus: Growth inhibition of human SK-MEL-2 cells. The conditions noted are these: for CC50: read-out: LC50 (the source's name).
In the next test the test system is K562. The test can be described thus: Growth inhibition of human K562 cells. Particulars: for CC50: read-out: LC50 (the source's name).
The next test concerns A498. The test can be described thus: Growth inhibition of human A498 cells. Particulars: for CC50: read-out: LC50 (the source's name).
The next test relates to OVCAR-5. In words: Growth inhibition of human OVCAR5 cells. The conditions noted are these: for CC50: read-out: LC50 (the source's name).
The nature of test [3]: Growth inhibition of human NCI60 cells.

For `O=C1NC(=O)C(=Cc2c[nH]c3ccccc23)C(=O)N1`, the inhibition of growth at 10 µM in the test with UO-31 was 39%.

On to `Cc1ccc(S(=O)(=O)n2cc(C=C3C(=O)N(C)C(=O)N(C)C3=O)c3ccccc32)cc1`, for which the inhibition of growth at 10 µM in the test on RXF 393 was 52%; in the test with UO-31, 41%.

For the compound `O=C1NC(=O)C(=Cc2cn(C(=O)c3ccccc3)c3ccccc23)C(=O)N1`, the inhibition of growth at 10 µM was determined as 55% in the test with RXF 393 and 36% with UO-31.

By GI50 is commonly meant the concentration that inhibits growth by half. A low value points to more potent growth inhibition. The term TGI denotes the concentration giving total growth inhibition. Low values mean greater sensitivity of the cells, high ones lower sensitivity of the cells. In general, LC50 refers to the concentration lethal to half of the exposed cells or organisms. Read a high LC50 as a less lethal substance. Consider `O=C1NC(=O)C(=Cc2cn(Cc3ccccc3)c3ccccc23)C(=O)N1`, for which the GI50 in the test with IGROV-1 amounted to 0.48 µM; with MDA-MB-468, 0.1 µM; with TK-10 [1], 2 µM; in the test on NCI-H460, 0.3 µM; in the test with SF-295 it was 3.3 µM; in the test with NCI-H226, 5.4 µM. In addition, the GI50 in the test with HOP-92 was found to be 1.5 µM; with CAKI-1, 4.6 µM; in the test on T47D, 4.5 µM; in the test on COLO 205, 1.4 µM; with UACC-62, 1.6 µM; with OVCAR-4 it was 2 µM. Besides, the GI50 amounted to 2.9 µM with SK-MEL-2; 3.1 µM with K562; 0.03 µM with A498; 0.3 µM in the test with OVCAR-5; 7.5 µM in test [3]. The TGI with IGROV-1 is 10.4 µM; with MDA-MB-468 it was 0.38 µM; in the test on TK-10 [1] it was 8.3 µM; with NCI-H460, 16.5 µM; in the test on SF-295 it was 70.7 µM; in the test with NCI-H226, 28 µM. For the same compound, the TGI in the test with HOP-92 came out at 15 µM; in the test with CAKI-1, 25.7 µM; with T47D, 22.3 µM; with COLO 205 it was 10.9 µM; in the test with UACC-62, 16.5 µM; in the test on OVCAR-4, 44 µM. In addition, the TGI is 23.4 µM in the test on SK-MEL-2, 23 µM with K562, 0.26 µM in the test with A498 and 3.8 µM in the test on OVCAR-5. Further, the CC50 was 63 µM in the test on IGROV-1; greater than 100 µM in the test on MDA-MB-468; greater than 100 µM in the test on TK-10 [1]; greater than 100 µM in the test on SF-295; 58.8 µM in the test on HOP-92; 95 µM in the test on T47D. In addition, the CC50 is 41.6 µM in the test on COLO 205; greater than 100 µM in the test on OVCAR-4; greater than 100 µM with SK-MEL-2; greater than 100 µM with K562; 1.09 µM in the test on A498; 39.8 µM in the test with OVCAR-5. For the same compound, the LC50 is 63 µM with NCI-H460, greater than 100 µM with NCI-H226, 93 µM in the test with CAKI-1 and greater than 100 µM with UACC-62. In addition, the values for the inhibition of growth at 10 µM in the test with TK-10 [2] and in the test on UO-31 were 71% and 29%, respectively.

Take `O=C1NC(=O)C(=Cc2cn(C(=O)c3ccc(Cl)cc3)c3ccccc23)C(=O)N1`: the inhibition of growth at 10 µM with UO-31 came to 22%.

Regarding `CN1C(=O)C(=Cc2c[nH]c3ccccc23)C(=O)N(C)C1=O`, in the test with UO-31, the inhibition of growth at 10 µM worked out at 33%.

Consider `CN1C(=O)C(=Cc2cn(C(=O)c3ccc(Cl)cc3)c3ccccc23)C(=O)N(C)C1=O`, for which the inhibition of growth at 10 µM in the test with RXF 393 turned out to be 33%.

With `CN1C(=O)C(=Cc2cn(Cc3ccccc3)c3ccccc23)C(=O)N(C)C1=O`, the GI50 in the test with IGROV-1 was determined as 0.06 µM; with MDA-MB-468 it was 0.02 µM; in the test on TK-10 [1], 3.1 µM; with NCI-H460, 4.1 µM; in the test with SF-295, 1.1 µM; in the test with NCI-H226, 3.4 µM. The GI50 with HOP-92 came to 8.3 µM; in the test on CAKI-1, 0.5 µM; with T47D, 5 µM; with COLO 205, 0.7 µM; in the test with UACC-62, 1 µM; with OVCAR-4, 6.1 µM. Also, the concentration for 50% growth inhibition (GI50) was determined as 3 µM in the test with SK-MEL-2; 4.3 µM in the test on K562; 0.2 µM in the test with A498; 0.1 µM in the test on OVCAR-5; 13.8 µM in test [3]. For the same compound, the TGI in the test on IGROV-1 is 0.26 µM; in the test on MDA-MB-468, 0.06 µM; in the test with TK-10 [1], 57.5 µM; with NCI-H460 it was greater than 100 µM; in the test on SF-295 it was greater than 100 µM; with NCI-H226 it was 27 µM. The TGI in the test with HOP-92 is 50 µM; in the test with CAKI-1, 6.4 µM; in the test on T47D, greater than 100 µM; in the test with COLO 205 it was 9.1 µM; in the test with UACC-62 it was 12.5 µM; in the test with OVCAR-4 it was greater than 100 µM. For the same compound, the TGI in the test with SK-MEL-2 is 45.7 µM; with K562, greater than 100 µM; in the test on A498 it was 0.64 µM; in the test on OVCAR-5, 0.67 µM. Also, the CC50 is 0.85 µM with IGROV-1; 0.69 µM in the test on MDA-MB-468; greater than 100 µM in the test on TK-10 [1]; greater than 100 µM in the test with SF-295; greater than 100 µM with HOP-92; greater than 100 µM in the test on T47D. In addition, the CC50 in the test on COLO 205 is greater than 100 µM; in the test on OVCAR-4, greater than 100 µM; in the test on SK-MEL-2 it was greater than 100 µM; in the test on K562, greater than 100 µM; in the test with A498, 2.29 µM; with OVCAR-5 it was greater than 100 µM. Further, the LC50 in the test with NCI-H460, in the test on NCI-H226, in the test on CAKI-1 and with UACC-62 was greater than 100 µM throughout. The inhibition of growth at 10 µM with TK-10 [2] came to 95%; in the test with RXF 393, 43%; in the test with UO-31 it was 36%.

Take `Cc1ccc(S(=O)(=O)n2cc(C=C3C(=O)NC(=O)NC3=O)c3ccccc32)cc1`: the inhibition of growth at 10 µM with UO-31 was found to be 32%.

Take `CN1C(=O)C(=Cc2cn(C(=O)c3ccccc3)c3ccccc23)C(=O)N(C)C1=O`: the values for the inhibition of growth at 10 µM in the test with RXF 393 and in the test with UO-31 were 55% and 36%, respectively.

The compound `O=c1[nH]cc(F)c(=O)[nH]1` [FLUOROURACIL] showed a GI50 in test [3] of 17.7 µM.

`COc1ccc2c(c1)c(CC(=O)O)c(C)n2C(=O)c1ccc(Cl)cc1` [INDOMETHACIN] came in with a GI50 in test [3] of 64.3 µM.
